US9376418B2, “Substituted pyridine spleen tyrosine kinase (SYK) inhibitors” (Merck Sharp & Dohme Corp., priority 2012, dated 2016)

biological target: T1, recombinant human GST-SYK (Homo sapiens, UniProt P43405); test: Homogeneous Time-Resolved Fluorescence (HTRF) assay for the recombinant human Syk enzyme; assay type: biochemical; conditions: HTRF assay, recombinant human GST-SYK; IC50 given as class symbols; read-out: rhSYK Activity
T1 construct: purchased Carna Biosciences 08-176
Summary of the method: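 HTRF read-out: Europium-anti-phosphotyrosine antibody (2 nM) plus SA-APC (70 nM) in EDTA-containing buffer quenched the reaction, and signal was read after 30 minutes. Kinase step used […], 250 nM biotinylated peptide, 25 μM ATP, 5 mM Mg, 45′ at room temperature.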

IC50 [µM] | SMILES
< 0.1 | Cc1cc(Nc2nccc(C(F)(F)F)n2)cc(-c2cncc(C3(O)CCC(C(=O)O)C3)c2)c1 (stereo not shown) [Example 9.67, 3-hydroxy-3-[5-(3-methyl-5-{[4-(trifluoromethyl)pyrimidin-2-yl]amino}phenyl)pyridin-3-yl]cyclopentanecarboxylic acid]
< 0.1 | Cc1cc(Nc2nccc(C(F)(F)F)n2)cc(-c2cncc(C(C)(O)CO)c2)c1 (stereo not shown) [Example 9.68, 2-[5-(3-methyl-5-{[4-(trifluoromethyl)pyrimidin-2-yl]amino}phenyl)pyridin-3-yl]propane-1,2-diol]
< 0.1 | Cc1cc(Nc2nccc(C(F)(F)F)n2)cc(-c2cncc([C@]3(O)CC[C@@H](C(=O)O)CC3)c2)c1 [Example 9.69, cis-4-hydroxy-4-[5-(3-methyl-5-{[4-(trifluoromethyl)pyrimidin-2-yl]amino}phenyl)pyridin-3-yl]cyclohexanecarboxylic acid]
< 0.1 | Cc1cc(Nc2nccc(C(F)(F)F)n2)cc(-c2cncc([C@]3(O)CC[C@H](C(=O)O)CC3)c2)c1 [Example 9.70, trans-4-hydroxy-4-[5-(3-methyl-5-{[4-(trifluoromethyl)pyrimidin-2-yl]amino}phenyl)pyridin-3-yl]cyclohexanecarboxylic acid]
< 0.1 | Cc1cc(Nc2nccc(C(F)(F)F)n2)cc(-c2cncc(C(C)(C)O)c2)c1 [Example 9.71, 2-[5-(3-methyl-5-{[4-(trifluoromethyl)pyrimidin-2-yl]amino}phenyl)pyridin-3-yl]propan-2-ol]
< 0.1 | CC(=O)C(C)(O)c1cncc(-c2cc(C)cc(Nc3nccc(C(F)(F)F)n3)c2)c1 (stereo not shown) [Example 9.72, 3-hydroxy-3-[5-(3-methyl-5-{[4-(trifluoromethyl)pyrimidin-2-yl]amino}phenyl)pyridin-3-yl]butan-2-one]
< 0.1 | Cc1cc(Nc2nccc(C(F)(F)F)n2)cc(-c2cncc(C(C)(O)C(C)O)c2)c1 (stereo not shown) [Example 9.73, 2-[5-(3-methyl-5-{[4-(trifluoromethyl)pyrimidin-2-yl]amino}phenyl)pyridin-3-yl]butane-2,3-diol]
1 to 10 | Cc1cc(Nc2nccc(C3CC3)n2)cc(-c2cncc(C(O)(CO)CO)c2)c1 [Example 9.74, 2-(5-{3-[(4-cyclopropylpyrimidin-2-yl)amino]-5-methylphenyl}pyridin-3-yl)propane-1,2,3-triol]
0.1 to 1 | Cc1cc(Nc2nccc(C)n2)cc(-c2cncc(C(O)(CO)CO)c2)c1 [Example 9.75, 2-(5-{3-methyl-5-[(4-methylpyrimidin-2-yl)amino]phenyl}pyridin-3-yl)propane-1,2,3-triol]
< 0.1 | Cc1cc(Nc2nccc(C(F)(F)F)n2)cc(-c2cncc(C3(O)CCC(O)CC3)c2)c1 (stereo not shown) [Example 9.76, 1-[5-(3-methyl-5-{[4-(trifluoromethyl)pyrimidin-2-yl]amino}phenyl)pyridin-3-yl]cyclohexane-1,4-diol]
0.1 to 1 | CCOC(=O)C1CCCC(O)(c2cncc(-c3cc(C)cc(Nc4nccc(C(F)(F)F)n4)c3)c2)C1 (stereo not shown) [Example 9.77, ethyl 3-hydroxy-3-[5-(3-methyl-5-{[4-(trifluoromethyl)pyrimidin-2-yl]amino}phenyl)pyridin-3-yl]cyclohexanecarboxylate]
0.1 to 1 | Cc1cc(Nc2nccc(C(F)(F)F)n2)cc(-c2cncc(C3(O)COC(C)(C)OC3)c2)c1 [Example 9.78, 2,2-dimethyl-5-[5-(3-methyl-5-{[4-(trifluoromethyl)pyrimidin-2-yl]amino}phenyl)pyridin-3-yl]-1,3-dioxan-5-ol]
< 0.1 | Cc1cc(Nc2nccc(C(F)(F)F)n2)cc(-c2cncc(C3(O)COC3)c2)c1 [Example 9.79, 3-[5-(3-methyl-5-{[4-(trifluoromethyl)pyrimidin-2-yl]amino}phenyl)pyridin-3-yl]oxetan-3-ol]
< 0.1 | Cc1cc(Nc2nccc(C(F)(F)F)n2)cc(-c2cncc(C(O)(CO)CO)c2)c1 [Example 9.80, 2-[5-(3-methyl-5-{[4-(trifluoromethyl)pyrimidin-2-yl]amino}phenyl)pyridin-3-yl]propane-1,2,3-triol]
< 0.1 | Cc1cc(Nc2nccc(C(F)(F)F)n2)cc(-c2cncc(C(C)(O)C(F)(F)F)c2)c1 (stereo not shown) [Example 9.81, 1,1,1-trifluoro-2-[5-(3-methyl-5-{[4-(trifluoromethyl)pyrimidin-2-yl]amino}phenyl)pyridin-3-yl]propan-2-ol]
< 0.1 | Cc1cc(Nc2nccc(C(F)(F)F)n2)cc(-c2cncc(C3(O)CCN(C(N)=O)CC3)c2)c1 [Example 10.1, 4-Hydroxy-4-[5-(3-methyl-5-{[4-(trifluoromethyl)pyrimidin-2-yl]amino}phenyl)pyridin-3-yl]piperidine-1-carboxamide]
< 0.1 | Cc1cc(Nc2nccc(C(F)(F)F)n2)cc(-c2cncc(C3(O)CCN(C(N)=O)C3)c2)c1 (stereo not shown) [Example 10.2, 3-hydroxy-3-[5-(3-methyl-5-{[4-(trifluoromethyl)pyrimidin-2-yl]amino}phenyl)pyridin-3-yl]pyrrolidine-1-carboxamide]

IC50 [µM] | SMILES
< 0.1 | Cc1cc(Nc2nccc(C(F)(F)F)n2)cc(-c2ccc(C3(O)CCN(C(N)=O)CC3)nc2)c1 [Example 10.3, 4-hydroxy-4-[5-(3-methyl-5-{[4-(trifluoromethyl)pyrimidin-2-yl]amino}phenyl)pyridin-2-yl]piperidine-1-carboxamide]
< 0.1 | Cc1cc(Nc2nccc(C(F)(F)F)n2)cc(-c2ccc(C3(O)CCN(C(N)=O)C3)nc2)c1 (stereo not shown) [Example 10.4, 3-hydroxy-3-[5-(3-methyl-5-{[4-(trifluoromethyl)pyrimidin-2-yl]amino}phenyl)pyridin-2-yl]pyrrolidine-1-carboxamide]
< 0.1 | Cc1cc(Nc2nccc(C(F)(F)F)n2)cc(-c2ccc(C3(O)CCNC(=O)CC3)nc2)c1 (stereo not shown) [Example 11.1, 5-Hydroxy-5-[5-(3-methyl-5-{[4-(trifluoromethyl)pyrimidin-2-yl]amino}phenyl)pyridin-2-yl]azepan-2-one]
0.1 to 1 | Cc1cc(Nc2nccc(C(F)(F)F)n2)cc(-c2ccc(Oc3ccc(C(N)=O)cc3)nc2)c1 [Example 12.3, 4-{[5-(3-Methyl-5-{[4-(trifluoromethyl)pyrimidin-2-yl]amino}phenyl)pyridin-2-yl]oxy}benzamide]
< 0.1 | Cc1cc(Nc2nccc(C(F)(F)F)n2)cc(-c2ccc(C(C)(O)c3ccc(C(N)=O)cc3)nc2)c1 (stereo not shown) [Example 12.4, 4-{1-hydroxy-1-[5-(3-methyl-5-{[4-(trifluoromethyl)pyrimidin-2-yl]amino}phenyl)pyridin-2-yl]ethyl}benzamide]
< 0.1 | Cc1cc(Nc2nccc(C(F)(F)F)n2)cc(-c2ccc(C(=O)N3CCNC(=O)C3C)nc2)c1 (stereo not shown) [Example 12.5, 3-methyl-4-{[5-(3-methyl-5-{[4-(trifluoromethyl)pyrimidin-2-yl]amino}phenyl)pyridin-2-yl]carbonyl}piperazin-2-one]
< 0.1 | Cc1cc(Nc2nccc(C(F)(F)F)n2)cc(-c2ccc(C(N)=O)nc2)c1 [Example 12.6, 5-(3-methyl-5-{[4-(trifluoromethyl)pyrimidin-2-yl]amino}phenyl)pyridine-2-carboxamide]
< 0.1 | Cc1cc(Nc2nccc(C(F)(F)F)n2)cc(-c2ccc(NCC(=O)NCC(N)=O)nc2)c1 [Example 12.7, N-[5-(3-methyl-5-{[4-(trifluoromethyl)pyrimidin-2-yl]amino}phenyl)pyridin-2-yl]glycylglycinamide]
< 0.1 | Cc1cc(Nc2nccc(C(F)(F)F)n2)cc(-c2ccc(NC3(C(N)=O)CC3)nc2)c1 [Example 12.8, 1-{[5-(3-methyl-5-{[4-(trifluoromethyl)pyrimidin-2-yl]amino}phenyl)pyridin-2-yl]amino}cyclopropanecarboxamide]
< 0.1 | Cc1cc(Nc2nccc(C(F)(F)F)n2)cc(-c2ccc(N3CC[C@H]3C(N)=O)nc2)c1 [Example 12.9, (2S)-1-[5-(3-methyl-5-{[4-(trifluoromethyl)pyrimidin-2-yl]amino}phenyl)pyridin-2-yl]azetidine-2-carboxamide]
< 0.1 | Cc1cc(Nc2nccc(C(F)(F)F)n2)cc(-c2ccc(CCC#N)nc2)c1 [Example 13.1, 3-[5-(3-Methyl-5-{[4-(trifluoromethyl)pyrimidin-2-yl]amino}phenyl)pyridin-2-yl]propanenitrile]
< 0.1 | Cc1cc(Nc2nccc(C(F)(F)F)n2)cc(-c2ccc(CCC(=O)O)nc2)c1 [Example 13.2, 3-[5-(3-Methyl-5-{[4-(trifluoromethyl)pyrimidin-2-yl]amino}phenyl)pyridin-2-yl]propanoic acid]
< 0.1 | Cc1cc(Nc2nccc(C(F)(F)F)n2)cc(-c2ccc(CCC(N)=O)nc2)c1 [Example 13.3, 3-[5-(3-Methyl-5-{[4-(trifluoromethyl)pyrimidin-2-yl]amino}phenyl)pyridin-2-yl]propanamide]
< 0.1 | Cc1cc(Nc2nccc(C(F)(F)F)n2)cc(-c2ccc(CCc3nnn[nH]3)nc2)c1 [Example 13.4, N-(3-Methyl-5-{6-[2-(1H-tetrazol-5-yl)ethyl]pyridin-3-yl}phenyl)-4-(trifluoromethyl)pyrimidin-2-amine]
< 0.1 | Cc1cc(Nc2nccc(C(F)(F)F)n2)cc(-c2ccc(CCc3noc(=O)[nH]3)nc2)c1 [Example 13.5, 3-{2-[5-(3-Methyl-5-{[4-(trifluoromethyl)pyrimidin-2-yl]amino}phenyl)pyridin-2-yl]ethyl}-1,2,4-oxadiazol-5(4H)-one]
< 0.1 | Cc1cc(Nc2nccc(C(F)(F)F)n2)cc(-c2ccc(CN3CCCC3=O)nc2)c1 [Example 14.1, 1-{[5-(3-Methyl-5-{[4-(trifluoromethyl)pyrimidin-2-yl]amino}phenyl)pyridin-2-yl]methyl}pyrrolidin-2-one]
< 0.1 | COCCNc1cncc(-c2cc(C)cc(Nc3nccc(C(F)(F)F)n3)c2)c1 [Example 15.1, N-(3-{5-[(2-Methoxyethyl)amino]pyridin-3-yl}-5-methylphenyl)-4-(trifluoromethyl)pyrimidin-2-amine]
